Assay results as given in patent US20210207064A1, “COMPOUND FOR RESTORING CONTAMINATED SOIL OR CONTAMINATED WATER” (FNG RESEARCH CO., LTD., priority 2018, published 2021).

Key:
[1] = Heavy metal removal ability test in contaminated soil (ICP-MS), arsenic; details: for Arsenic (As) Adsorption amount: contaminated soil; for Arsenic (As) Adsorption rate: relative to EDTA control
How it was run: (§1)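 Sieved soil spiked with aqueous heavy metal, mixed 5 min with 3 ml of test solution, then extracted with 50 ml distilled water (20 min stirring, 1 h settling). Supernatant metal measured by ICP-MS; adsorption rate (%) expressed relative to control.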

[2] = Heavy metal removal ability test in contaminated soil (ICP-MS), cadmium; details: for Cadmium (Cd) Adsorption amount: contaminated soil; for Cadmium (Cd) Adsorption rate: relative to EDTA control
How it was run: as §1

[3] = Heavy metal removal ability test in contaminated soil (ICP-MS), nickel; details: for Nickel (Ni) Adsorption amount: contaminated soil; for Nickel (Ni) Adsorption rate: relative to EDTA control
How it was run: as §1

[4] = test system: human skin; assay: Skin irritation test of active ingredient (patch method, CTFA guidelines); assay type: in vivo; details: 24 h patch; for Test result (number of subject) (+) / Test result (number of subject) (++) / Test result (number of subject) (±) / Test result (number of subject) (−): 20 people; for Test result (number of subject) (+): (+) apparent reddening; for Test result (number of subject) (++): (++) more reddened and swollen; for Test result (number of subject) (±): (±) slightly reddish; for Test result (number of subject) (−): (−) no erythema
[5] = Formaldehyde (formalin) removing ability test (GC); details: 2.0% formaldehyde solution, 3 molar equivalents of compound, room temperature; for Formaldehyde GC Area, 30 min: after 30 min; for Formaldehyde GC Area, 180 min: after 180 min; for Formaldehyde GC Area, Initial: initial state
[6] = Heavy metal removal ability test in contaminated soil around a factory (WAK-Me test kit); details: 1.0 wt % aqueous solution, colour comparison test kit
Procedure: The contaminated soil around the factory in the industrial complex was collected, pulverized, and meshed to prepare fine particles of soil samples.
Each 3 ml of aqueous solutions for restoring soil was added to soil samples and mixed for 5 minutes.

Row | SMILES | Arsenic (As) Adsorption amount ([1]; content 0.5% aqueous solution) [ppm] | Arsenic (As) Adsorption rate ([1]; content 0.5%) [%] | Arsenic (As) Adsorption amount ([1]; content 1.0% aqueous solution) [ppm] | Arsenic (As) Adsorption rate ([1]; content 1.0%) [%] | Arsenic (As) Adsorption amount ([1]; content 2.0% aqueous solution) [ppm] | Arsenic (As) Adsorption rate ([1]; content 2.0%) [%] | Cadmium (Cd) Adsorption amount ([2]; content 0.5% aqueous solution) [ppm] | Cadmium (Cd) Adsorption rate ([2]; content 0.5%) [%] | Cadmium (Cd) Adsorption amount ([2]; content 1.0% aqueous solution) [ppm] | Cadmium (Cd) Adsorption rate ([2]; content 1.0%) [%] | Cadmium (Cd) Adsorption amount ([2]; content 2.0% aqueous solution) [ppm] | Cadmium (Cd) Adsorption rate ([2]; content 2.0%) [%] | Nickel (Ni) Adsorption amount ([3]; content 0.5% aqueous solution) [ppm] | Nickel (Ni) Adsorption rate ([3]; content 0.5%) [%] | Nickel (Ni) Adsorption amount ([3]; content 1.0% aqueous solution) [ppm] | Nickel (Ni) Adsorption rate ([3]; content 1.0%) [%] | Nickel (Ni) Adsorption amount ([3]; content 2.0% aqueous solution) [ppm] | Nickel (Ni) Adsorption rate ([3]; content 2.0%) [%] | Test result (number of subject) (+) ([4]; content 0.1 wt %) | Test result (number of subject) (++) ([4]; content 0.1 wt %) | also measured
1 | O=C(O)c1ccc(N(CCN(CCN(c2ccc(C(=O)O)o2)c2ccc(C(=O)O)o2)c2ccc(C(=O)O)o2)CCN(c2ccc(C(=O)O)o2)c2ccc(C(=O)O)o2)o1 [Embodiment 4, 5,5′,5″,5′″-(((ethane-1,2-diylbis((5-carboxyfuran-2-yl)azanediyl))bis(ethane-2,1-diyl))bis(azanetriyl))tetrakis(furan-2-carboxylic Acid)] | 53 | 212 | 56 | 224 | 56 | 224 | 67 | 163 | 74 | 180 | 80 | 195 | 91 | 186 | 94 | 192 | 104 | 212 | 0 | 0 | Test result (number of subject) (±) ([4]; content 0.1 wt %): 0; Test result (number of subject) (−) ([4]; content 0.1 wt %): 20; Degree of irritation ([4]; content 0.1 wt %): 0; Grade for skin irritation ([4]; content 0.1 wt %): I (Degree of irritation 0-0.1: Grade I (unstimulated)); Test result (number of subject) (+) ([4]; content 0.5 wt %): 0; Test result (number of subject) (++) ([4]; content 0.5 wt %): 0; Test result (number of subject) (±) ([4]; content 0.5 wt %): 0; Test result (number of subject) (−) ([4]; content 0.5 wt %): 20; Degree of irritation ([4]; content 0.5 wt %): 0; Grade for skin irritation ([4]; content 0.5 wt %): I (Degree of irritation 0-0.1: Grade I (unstimulated)); Test result (number of subject) (+) ([4]; content 1.0 wt %): 0; Test result (number of subject) (++) ([4]; content 1.0 wt %): 0; Test result (number of subject) (±) ([4]; content 1.0 wt %): 1; Test result (number of subject) (−) ([4]; content 1.0 wt %): 19; Degree of irritation ([4]; content 1.0 wt %): 0.05; Grade for skin irritation ([4]; content 1.0 wt %): I (Degree of irritation 0-0.1: Grade I (unstimulated)); Formaldehyde GC Area, 30 min [5]: 0.173 mAU*min; Formaldehyde GC Area, 180 min [5]: 0 mAU*min; Formaldehyde GC Area, Initial [5]: 0.305 mAU*min; Total amount (Cu, Zn, Mn, Ni, Cd) [6]: ≤5 ppm
2 | O=C(O)c1ccc(N2CCN(c3ccc(C(=O)O)o3)CCN(c3ccc(C(=O)O)o3)CCN(c3ccc(C(=O)O)o3)CC2)o1 [Embodiment 8, 5,5′,5″,5′″-(1,4,7,10-tetraazacyclododecane-1,4,7,10-tetrayl)tetrakis(furan-2-carboxylic Acid)] | 39 | 156 | 47 | 188 | 49 | 196 | 61 | 149 | 64 | 156 | 71 | 173 | 86 | 176 | 96 | 196 | 99 | 202 | 0 | 0 | Test result (number of subject) (±) ([4]; content 0.1 wt %): 0; Test result (number of subject) (−) ([4]; content 0.1 wt %): 20; Degree of irritation ([4]; content 0.1 wt %): 0; Grade for skin irritation ([4]; content 0.1 wt %): I (Degree of irritation 0-0.1: Grade I (unstimulated)); Test result (number of subject) (+) ([4]; content 0.5 wt %): 0; Test result (number of subject) (++) ([4]; content 0.5 wt %): 0; Test result (number of subject) (±) ([4]; content 0.5 wt %): 0; Test result (number of subject) (−) ([4]; content 0.5 wt %): 20; Degree of irritation ([4]; content 0.5 wt %): 0; Grade for skin irritation ([4]; content 0.5 wt %): I (Degree of irritation 0-0.1: Grade I (unstimulated)); Test result (number of subject) (+) ([4]; content 1.0 wt %): 0; Test result (number of subject) (++) ([4]; content 1.0 wt %): 0; Test result (number of subject) (±) ([4]; content 1.0 wt %): 2; Test result (number of subject) (−) ([4]; content 1.0 wt %): 18; Degree of irritation ([4]; content 1.0 wt %): 0.10; Grade for skin irritation ([4]; content 1.0 wt %): I (Degree of irritation 0-0.1: Grade I (unstimulated)); Formaldehyde GC Area, 30 min [5]: 0.168 mAU*min; Formaldehyde GC Area, 180 min [5]: 0 mAU*min; Formaldehyde GC Area, Initial [5]: 0.305 mAU*min; Total amount (Cu, Zn, Mn, Ni, Cd) [6]: ≤5 ppm
3 | NCCNCCNCCN [Trientine, Triethylenetetramine, reference compound] | 49 | 196 | 52 | 208 | 59 | 236 | 68 | 166 | 75 | 183 | 79 | 193 | 102 | 208 | 115 | 235 | 131 | 267 | 0 | 0 | Test result (number of subject) (±) ([4]; content 0.1 wt %): 0; Test result (number of subject) (−) ([4]; content 0.1 wt %): 20; Degree of irritation ([4]; content 0.1 wt %): 0; Grade for skin irritation ([4]; content 0.1 wt %): I (Degree of irritation 0-0.1: Grade I (unstimulated)); Test result (number of subject) (+) ([4]; content 0.5 wt %): 0; Test result (number of subject) (++) ([4]; content 0.5 wt %): 0; Test result (number of subject) (±) ([4]; content 0.5 wt %): 1; Test result (number of subject) (−) ([4]; content 0.5 wt %): 19; Degree of irritation ([4]; content 0.5 wt %): 0.05; Grade for skin irritation ([4]; content 0.5 wt %): I (Degree of irritation 0-0.1: Grade I (unstimulated)); Test result (number of subject) (+) ([4]; content 1.0 wt %): 0; Test result (number of subject) (++) ([4]; content 1.0 wt %): 0; Test result (number of subject) (±) ([4]; content 1.0 wt %): 3; Test result (number of subject) (−) ([4]; content 1.0 wt %): 17; Degree of irritation ([4]; content 1.0 wt %): 0.15; Grade for skin irritation ([4]; content 1.0 wt %): II (Degree of irritation 0.11-0.3: Grade II (weakly stimulated)); Formaldehyde GC Area, 30 min [5]: 0.168 mAU*min; Formaldehyde GC Area, 180 min [5]: 0 mAU*min; Formaldehyde GC Area, Initial [5]: 0.305 mAU*min; Total amount (Cu, Zn, Mn, Ni, Cd) [6]: ≤5 (red) ppm
4 | O=C(O)c1cncc(N2CCCN(c3cncc(C(=O)O)c3)CCN(c3cncc(C(=O)O)c3)CCCN(c3cncc(C(=O)O)c3)CC2)c1 [Embodiment 11, 5,5′,5″,5′″-(1,4,8,11-tetraazacyclotetradecane-1,4,8,11-tetrayl)tetranicotinic Acid] | 38 | 152 | 41 | 164 | 47 | 188 | 59 | 144 | 66 | 161 | 70 | 171 | 79 | 161 | 88 | 180 | 93 | 190 | 0 | 0 | Test result (number of subject) (±) ([4]; content 0.1 wt %): 0; Test result (number of subject) (−) ([4]; content 0.1 wt %): 20; Degree of irritation ([4]; content 0.1 wt %): 0; Grade for skin irritation ([4]; content 0.1 wt %): I (Degree of irritation 0-0.1: Grade I (unstimulated)); Test result (number of subject) (+) ([4]; content 0.5 wt %): 0; Test result (number of subject) (++) ([4]; content 0.5 wt %): 0; Test result (number of subject) (±) ([4]; content 0.5 wt %): 0; Test result (number of subject) (−) ([4]; content 0.5 wt %): 20; Degree of irritation ([4]; content 0.5 wt %): 0; Grade for skin irritation ([4]; content 0.5 wt %): I (Degree of irritation 0-0.1: Grade I (unstimulated)); Test result (number of subject) (+) ([4]; content 1.0 wt %): 0; Test result (number of subject) (++) ([4]; content 1.0 wt %): 0; Test result (number of subject) (±) ([4]; content 1.0 wt %): 2; Test result (number of subject) (−) ([4]; content 1.0 wt %): 18; Degree of irritation ([4]; content 1.0 wt %): 0.10; Grade for skin irritation ([4]; content 1.0 wt %): I (Degree of irritation 0-0.1: Grade I (unstimulated)); Formaldehyde GC Area, 30 min [5]: 0.174 mAU*min; Formaldehyde GC Area, 180 min [5]: 0 mAU*min; Formaldehyde GC Area, Initial [5]: 0.305 mAU*min; Total amount (Cu, Zn, Mn, Ni, Cd) [6]: ≤5 ppm
